Data from ChEMBL document CHEMBL3297725, “Acridone alkaloids from Glycosmis chlorosperma as DYRK1A inhibitors” (J Nat Prod, 2014).

How the values were obtained:
[1] = biological target: Dual specificity tyrosine-phosphorylation-regulated kinase 1A (Homo sapiens, UniProt Q13627); test: Inhibition of DYRK1A (unknown origin) assessed as inhibition of phosphate incorporation into substrate in presence of radiolabeled ATP
[2] = biological target: Dual specificity protein kinase CLK1 (Mus musculus) (UniProt P22518); test: Inhibition of CLK1 (mouse recombinant) assessed as inhibition of phosphate incorporation into substrate in presence of radiolabeled ATP
[3] = biological target: Cyclin-dependent kinase 1 (Homo sapiens, UniProt P06493); test: Inhibition of CDK1 (unknown origin) assessed as inhibition of phosphate incorporation into substrate in presence of radiolabeled ATP
[4] = biological target: Cyclin-dependent kinase 5 (Homo sapiens, UniProt Q00535); test: Inhibition of CDK5 (unknown origin) assessed as inhibition of phosphate incorporation into substrate in presence of radiolabeled ATP
[5] = biological target: Glycogen synthase kinase-3 (Homo sapiens, UniProt P49840+P49841); test: Inhibition of GSK3 (unknown origin) assessed as inhibition of phosphate incorporation into substrate in presence of radiolabeled ATP; assay type: protein assay
[6] = tested on: Casein kinase 1 delta/epsilon (Sus scrofa); test: Inhibition of CK1 (porcine brain) assessed as inhibition of phosphate incorporation into substrate in presence of radiolabeled ATP
[7] = biological target: Dual specificity tyrosine-phosphorylation-regulated kinase 1B (Homo sapiens, UniProt Q9Y463); test: Inhibition of DYRK1B (unknown origin)
[8] = Inhibition of CK1 delta/epsilon in porcine brain assessed as inhibition of phosphate incorporation using RRKHAAIGpSAYSITA and [gamma-33P]ATP as substrate after 30 mins by scintillation counting analysis; parameters: species or system Sus scrofa
[9] = biological target: Glycogen synthase kinase-3 (Sus scrofa, UniProt B2LUN4+I6LNT8); test: Inhibition of GSK3 alpha/beta in porcine brain assessed as inhibition of phosphate incorporation using YRRAAVPPSPSLSRHSSPHQSpEDEEE and [gamma-33P]ATP as substrate after 30 mins by scintillation counting analysis
[10] = biological target: T1, Dual specificity tyrosine-phosphorylation-regulated kinase 3 (Homo sapiens, UniProt O43781); test: Inhibition of DYRK3 (unknown origin)
T1 sequence (O43781 whole entry): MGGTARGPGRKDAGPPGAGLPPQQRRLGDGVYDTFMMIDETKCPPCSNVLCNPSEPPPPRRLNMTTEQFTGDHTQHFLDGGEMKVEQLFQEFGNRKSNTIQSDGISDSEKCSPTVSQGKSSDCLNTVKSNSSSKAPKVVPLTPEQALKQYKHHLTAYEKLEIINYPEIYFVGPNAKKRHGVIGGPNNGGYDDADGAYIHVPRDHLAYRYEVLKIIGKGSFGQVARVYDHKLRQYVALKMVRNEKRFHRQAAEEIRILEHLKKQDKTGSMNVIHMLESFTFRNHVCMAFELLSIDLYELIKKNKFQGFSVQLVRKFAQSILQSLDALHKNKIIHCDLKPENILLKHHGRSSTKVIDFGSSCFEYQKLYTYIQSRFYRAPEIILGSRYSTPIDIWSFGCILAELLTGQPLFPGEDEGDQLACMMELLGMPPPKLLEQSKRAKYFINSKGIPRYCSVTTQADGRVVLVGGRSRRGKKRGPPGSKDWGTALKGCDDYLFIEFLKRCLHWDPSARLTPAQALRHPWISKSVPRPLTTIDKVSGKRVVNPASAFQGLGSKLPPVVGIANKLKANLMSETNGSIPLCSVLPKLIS

[11] = biological target: Dual specificity tyrosine-phosphorylation-regulated kinase 1A (Rattus norvegicus, UniProt Q63470); test: Inhibition of rat DYRK1A assessed as inhibition of phosphate incorporation using GRSRSRSRSRSR and [gamma-33P]ATP as substrate after 30 mins by scintillation counting analysis
[12] = biological target: Dual specificity protein kinase CLK1 (Mus musculus, UniProt P22518); test: Inhibition of mouse recombinant GST-fused CLK1 expressed in Escherichia coli cells assessed as inhibition of phosphate incorporation using GRSRSRSRSRSR and [gamma-33P]ATP as substrate after 30 mins by scintillation counting analysis
[13] = biological target: Dual specificity protein kinase CLK2 (Homo sapiens, UniProt P49760); test: Inhibition of CLK2 (unknown origin)
[14] = biological target: T2, Dual specificity tyrosine-phosphorylation-regulated kinase 2 (Homo sapiens, UniProt Q92630); test: Inhibition of DYRK2 (unknown origin)
T2 sequence (Q92630 whole entry): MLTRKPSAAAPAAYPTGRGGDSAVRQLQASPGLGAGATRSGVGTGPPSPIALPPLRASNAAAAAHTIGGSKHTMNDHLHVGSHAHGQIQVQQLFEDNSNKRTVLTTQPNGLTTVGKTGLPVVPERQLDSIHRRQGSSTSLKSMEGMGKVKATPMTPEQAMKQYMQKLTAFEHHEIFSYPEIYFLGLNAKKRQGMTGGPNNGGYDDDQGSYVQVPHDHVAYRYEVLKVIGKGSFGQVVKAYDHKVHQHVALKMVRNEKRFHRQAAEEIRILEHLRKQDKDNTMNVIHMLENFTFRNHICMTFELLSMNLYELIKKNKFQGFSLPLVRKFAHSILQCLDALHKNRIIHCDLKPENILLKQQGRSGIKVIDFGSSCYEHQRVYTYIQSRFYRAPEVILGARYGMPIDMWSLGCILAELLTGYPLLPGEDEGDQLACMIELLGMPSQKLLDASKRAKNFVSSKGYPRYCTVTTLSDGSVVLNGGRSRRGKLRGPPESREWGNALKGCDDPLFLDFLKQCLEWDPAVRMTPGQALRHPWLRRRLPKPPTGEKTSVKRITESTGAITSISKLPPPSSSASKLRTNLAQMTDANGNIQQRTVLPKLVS

[15] = Inhibition of CDK1/cyclin B in starfish oocytes assessed as inhibition of phosphate incorporation using histone 1 and [gamma-33P]ATP as substrate after 30 mins by scintillation counting analysis; parameters: species or system Patiria pectinifera
[16] = biological target: Cyclin-dependent kinase 5/CDK5 activator 1 (Homo sapiens, UniProt Q00535); test: Inhibition of CDK5/p25 (unknown origin) assessed as inhibition of phosphate incorporation using histone 1 and [gamma-33P]ATP as substrate after 30 mins by scintillation counting analysis; assay type: protein-complex assay
[17] = biological target: CDK2/Cyclin A2 (Homo sapiens, UniProt P24941); test: Inhibition of CDK2/cyclin A (unknown origin); assay type: protein-complex assay
[18] = biological target: CDK9/cyclin T1 (Homo sapiens, UniProt P50750); test: Inhibition of CDK9/cyclin T (unknown origin); assay type: protein-complex assay
[19] = biological target: Dual specificity protein kinase CLK3 (Homo sapiens, UniProt P49761); test: Inhibition of CLK3 (unknown origin)
[20] = biological target: Dual specificity protein kinase CLK4 (Homo sapiens, UniProt Q9HAZ1); test: Inhibition of CLK4 (unknown origin)
Chain of Dual specificity protein kinase CLK4 (Q9HAZ1 whole entry): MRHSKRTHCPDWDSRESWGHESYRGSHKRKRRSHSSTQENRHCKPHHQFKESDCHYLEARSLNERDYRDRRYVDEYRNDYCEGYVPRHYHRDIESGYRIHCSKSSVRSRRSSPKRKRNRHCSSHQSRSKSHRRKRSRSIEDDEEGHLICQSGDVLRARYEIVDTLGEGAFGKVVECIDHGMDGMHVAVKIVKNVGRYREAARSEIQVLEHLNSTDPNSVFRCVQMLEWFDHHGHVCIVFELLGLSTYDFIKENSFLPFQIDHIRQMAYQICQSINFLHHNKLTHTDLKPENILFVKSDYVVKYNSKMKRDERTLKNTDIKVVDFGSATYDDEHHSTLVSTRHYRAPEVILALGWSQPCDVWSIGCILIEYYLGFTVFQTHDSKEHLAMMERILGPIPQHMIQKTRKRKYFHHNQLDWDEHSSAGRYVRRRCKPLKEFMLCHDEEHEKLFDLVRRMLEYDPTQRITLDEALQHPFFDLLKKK

Chain of Cyclin-dependent kinase 1 (P06493 whole entry): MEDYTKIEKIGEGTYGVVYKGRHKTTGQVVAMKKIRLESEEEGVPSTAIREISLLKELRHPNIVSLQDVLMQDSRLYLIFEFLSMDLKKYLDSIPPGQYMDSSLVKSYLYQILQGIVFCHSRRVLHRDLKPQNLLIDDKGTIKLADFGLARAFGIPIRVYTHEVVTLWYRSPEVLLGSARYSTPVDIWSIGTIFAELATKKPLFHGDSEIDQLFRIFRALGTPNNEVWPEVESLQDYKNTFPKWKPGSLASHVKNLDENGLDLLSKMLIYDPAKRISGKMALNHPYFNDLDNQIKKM
Chain of Cyclin-dependent kinase 5 (Q00535 whole entry): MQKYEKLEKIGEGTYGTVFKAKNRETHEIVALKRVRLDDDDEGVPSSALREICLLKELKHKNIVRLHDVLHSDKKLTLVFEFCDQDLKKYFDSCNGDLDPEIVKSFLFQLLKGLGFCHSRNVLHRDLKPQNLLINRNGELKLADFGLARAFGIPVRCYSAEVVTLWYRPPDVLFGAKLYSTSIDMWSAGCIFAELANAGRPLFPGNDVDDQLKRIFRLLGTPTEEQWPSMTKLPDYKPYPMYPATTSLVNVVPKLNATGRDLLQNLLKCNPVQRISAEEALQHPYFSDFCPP
Chain of Dual specificity protein kinase CLK1 (Mus musculus) (P22518 whole entry, looked up): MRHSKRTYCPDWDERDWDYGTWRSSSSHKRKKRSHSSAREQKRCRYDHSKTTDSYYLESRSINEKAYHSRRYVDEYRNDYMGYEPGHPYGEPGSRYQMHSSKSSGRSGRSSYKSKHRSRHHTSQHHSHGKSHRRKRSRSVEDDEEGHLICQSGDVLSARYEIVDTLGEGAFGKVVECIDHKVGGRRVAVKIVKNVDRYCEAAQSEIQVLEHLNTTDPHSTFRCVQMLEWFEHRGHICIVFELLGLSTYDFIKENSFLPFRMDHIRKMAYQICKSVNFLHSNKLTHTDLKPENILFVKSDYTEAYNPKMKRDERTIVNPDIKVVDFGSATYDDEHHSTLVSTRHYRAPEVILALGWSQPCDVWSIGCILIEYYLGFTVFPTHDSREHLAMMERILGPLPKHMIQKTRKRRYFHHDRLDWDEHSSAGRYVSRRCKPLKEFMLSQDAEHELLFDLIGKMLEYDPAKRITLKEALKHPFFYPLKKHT
Chain of Dual specificity protein kinase CLK2 (P49760 whole entry): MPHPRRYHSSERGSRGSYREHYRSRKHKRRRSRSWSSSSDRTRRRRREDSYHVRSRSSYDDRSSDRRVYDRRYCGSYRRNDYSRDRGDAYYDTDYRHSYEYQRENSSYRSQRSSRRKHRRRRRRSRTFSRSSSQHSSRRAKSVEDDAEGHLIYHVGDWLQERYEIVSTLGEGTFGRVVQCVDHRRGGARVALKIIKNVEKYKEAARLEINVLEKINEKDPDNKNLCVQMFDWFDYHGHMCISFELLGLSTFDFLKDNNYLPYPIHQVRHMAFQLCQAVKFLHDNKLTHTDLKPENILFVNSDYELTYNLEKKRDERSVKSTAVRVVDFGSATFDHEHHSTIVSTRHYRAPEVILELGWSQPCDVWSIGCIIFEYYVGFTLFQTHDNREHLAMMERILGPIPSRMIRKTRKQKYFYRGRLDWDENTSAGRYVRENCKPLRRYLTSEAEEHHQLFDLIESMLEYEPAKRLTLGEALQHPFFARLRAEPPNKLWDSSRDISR
Chain of Dual specificity protein kinase CLK3 (P49761 whole entry): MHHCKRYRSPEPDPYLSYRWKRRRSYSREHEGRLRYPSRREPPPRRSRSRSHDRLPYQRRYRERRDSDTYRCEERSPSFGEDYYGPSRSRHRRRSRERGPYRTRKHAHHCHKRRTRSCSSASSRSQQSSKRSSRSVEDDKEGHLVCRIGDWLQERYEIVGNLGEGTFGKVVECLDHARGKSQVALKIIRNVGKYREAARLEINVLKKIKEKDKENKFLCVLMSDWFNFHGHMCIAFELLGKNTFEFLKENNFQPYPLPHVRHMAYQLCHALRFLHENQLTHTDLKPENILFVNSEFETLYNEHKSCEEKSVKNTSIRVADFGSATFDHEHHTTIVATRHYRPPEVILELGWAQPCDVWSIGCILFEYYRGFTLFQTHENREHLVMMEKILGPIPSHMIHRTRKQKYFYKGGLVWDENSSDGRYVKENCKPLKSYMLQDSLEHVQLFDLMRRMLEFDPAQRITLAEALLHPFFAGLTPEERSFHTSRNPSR
Chain of Cyclin-dependent kinase 5/CDK5 activator 1 (Q00535 whole entry): as the sequence (Q00535 whole entry) above
Chain of Cyclin-dependent kinase 5/CDK5 activator 1 (Q15078 whole entry, further chain): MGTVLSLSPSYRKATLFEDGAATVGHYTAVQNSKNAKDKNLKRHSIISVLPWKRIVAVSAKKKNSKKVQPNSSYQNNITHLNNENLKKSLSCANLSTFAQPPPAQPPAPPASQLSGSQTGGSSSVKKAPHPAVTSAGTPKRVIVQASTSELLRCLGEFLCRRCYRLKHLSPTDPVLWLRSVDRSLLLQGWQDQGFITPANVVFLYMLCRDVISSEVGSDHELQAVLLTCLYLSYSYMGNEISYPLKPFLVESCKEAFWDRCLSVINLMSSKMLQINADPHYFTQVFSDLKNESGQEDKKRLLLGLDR
Chain of Dual specificity tyrosine-phosphorylation-regulated kinase 1B (Q9Y463 whole entry): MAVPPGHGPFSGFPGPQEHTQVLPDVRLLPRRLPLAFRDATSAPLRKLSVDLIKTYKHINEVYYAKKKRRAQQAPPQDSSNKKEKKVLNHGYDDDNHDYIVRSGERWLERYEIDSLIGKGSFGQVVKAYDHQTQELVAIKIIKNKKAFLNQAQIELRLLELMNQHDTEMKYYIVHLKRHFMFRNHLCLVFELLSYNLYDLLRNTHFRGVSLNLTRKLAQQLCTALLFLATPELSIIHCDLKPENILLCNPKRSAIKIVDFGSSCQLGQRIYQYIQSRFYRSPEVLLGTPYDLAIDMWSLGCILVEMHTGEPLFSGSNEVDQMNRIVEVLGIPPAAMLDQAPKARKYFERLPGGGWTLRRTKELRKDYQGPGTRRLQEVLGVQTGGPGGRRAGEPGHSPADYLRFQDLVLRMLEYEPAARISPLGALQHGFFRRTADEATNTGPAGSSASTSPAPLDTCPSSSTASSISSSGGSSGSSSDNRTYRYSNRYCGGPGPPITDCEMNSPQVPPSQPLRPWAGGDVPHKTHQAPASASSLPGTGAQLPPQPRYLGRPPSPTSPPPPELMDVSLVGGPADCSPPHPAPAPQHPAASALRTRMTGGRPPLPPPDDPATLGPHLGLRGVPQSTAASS
Chain of Dual specificity protein kinase CLK1 (P22518 whole entry, the tested form may be a part): as the sequence (P22518 whole entry, looked up) above
Chain of CDK9/cyclin T1 (O60563 whole entry): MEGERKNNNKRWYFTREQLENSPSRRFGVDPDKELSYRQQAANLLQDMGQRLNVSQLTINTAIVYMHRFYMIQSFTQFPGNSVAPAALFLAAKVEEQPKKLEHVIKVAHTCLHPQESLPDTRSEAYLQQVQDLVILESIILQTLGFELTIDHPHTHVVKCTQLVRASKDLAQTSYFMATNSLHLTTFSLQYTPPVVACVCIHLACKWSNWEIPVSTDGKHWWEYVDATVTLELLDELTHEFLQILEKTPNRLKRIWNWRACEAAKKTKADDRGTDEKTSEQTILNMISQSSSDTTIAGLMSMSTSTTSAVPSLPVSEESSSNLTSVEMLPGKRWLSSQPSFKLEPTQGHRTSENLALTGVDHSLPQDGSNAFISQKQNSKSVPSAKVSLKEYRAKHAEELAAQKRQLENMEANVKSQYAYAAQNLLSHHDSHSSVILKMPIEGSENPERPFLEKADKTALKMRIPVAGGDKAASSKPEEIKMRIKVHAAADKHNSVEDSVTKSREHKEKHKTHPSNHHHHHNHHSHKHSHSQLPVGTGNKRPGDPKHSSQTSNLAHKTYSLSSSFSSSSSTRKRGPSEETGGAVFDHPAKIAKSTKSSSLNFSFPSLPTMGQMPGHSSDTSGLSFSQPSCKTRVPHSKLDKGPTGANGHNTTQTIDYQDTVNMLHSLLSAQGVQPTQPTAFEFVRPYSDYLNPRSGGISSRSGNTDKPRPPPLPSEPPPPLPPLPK
Chain of CDK9/cyclin T1 (P50750 whole entry): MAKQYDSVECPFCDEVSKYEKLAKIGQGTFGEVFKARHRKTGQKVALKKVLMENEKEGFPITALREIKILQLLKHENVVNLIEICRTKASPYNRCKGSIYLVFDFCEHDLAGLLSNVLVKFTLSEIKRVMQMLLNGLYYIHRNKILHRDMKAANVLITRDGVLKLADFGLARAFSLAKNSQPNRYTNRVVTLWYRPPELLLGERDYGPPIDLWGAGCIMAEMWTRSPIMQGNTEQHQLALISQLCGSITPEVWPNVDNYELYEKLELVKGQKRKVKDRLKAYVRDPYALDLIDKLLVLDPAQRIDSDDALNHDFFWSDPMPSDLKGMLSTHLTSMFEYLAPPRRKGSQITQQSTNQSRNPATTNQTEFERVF

Row | Compound | IC50 [1] | IC50 [2] | IC50 [3] | IC50 [4] | IC50 [5] | IC50 [6] | IC50 [7] | IC50 [8] | IC50 [9] | IC50 [10] | IC50 [11] | IC50 [12] | IC50 [13] | IC50 [14] | IC50 [15] | IC50 [16] | IC50 [17] | IC50 [18] | IC50 [19] | IC50 [20]
1 | Cn1c2c(O)cccc2c(=O)c2c3occc3c3c(c21)C=CC(C)(C)O3 | 5.7 µM | 7 µM | > 10 µM | > 10 µM | > 10 µM | > 10 µM |  |  |  |  |  |  |  |  |  |  |  |  |  | 
2 | CC1(C)C=Cc2c(cc(O)c3c(=O)c4cccc(O)c4[nH]c23)O1 [ATOLAPHYLLIDINE] | 2.2 µM | ≥ 10 µM | > 10 µM | > 10 µM | > 10 µM | > 10 µM |  |  |  |  |  |  |  |  |  |  |  |  |  | 
3 | COc1c(O)ccc2c(=O)c3c(O)cc4c(c3[nH]c12)C=CC(C)(C)O4 | 0.075 µM | 0.17 µM | 5.3 µM | 9 µM | 2 µM | > 10 µM | 0.35 µM | 8.7 µM | 0.71 µM | 1.2 µM | 0.09 µM | 0.21 µM | 0.68 µM | 1.7 µM | 1.1 µM | > 10 µM | 8.2 µM | 0.82 µM | 2.3 µM | 0.22 µM

Further lines, with some results ahead:

Row | IC50 [1] | Compound | IC50 [2] | IC50 [3] | IC50 [4] | IC50 [5] | IC50 [6] | IC50 [7] | IC50 [8] | IC50 [9] | IC50 [10] | IC50 [11] | IC50 [12] | IC50 [13] | IC50 [14] | IC50 [15] | IC50 [16] | IC50 [17] | IC50 [18] | IC50 [19] | IC50 [20]
4 | > 10 µM | Cn1c2c(O)cccc2c(=O)c2c3c(c4c(c21)C=CC(C)(C)O4)C=C(O)C(C)(C)O3 | > 10 µM | > 10 µM | > 10 µM | > 10 µM | > 10 µM |  |  |  |  |  |  |  |  |  |  |  |  |  | 
5 | 0.052 µM | O=C1Nc2cc(Br)ccc2/C1=C1/Nc2ccccc2/C1=N\O [6BIO] |  |  |  |  |  |  |  |  |  |  |  |  |  |  |  |  |  |  | 
